Where two headings read alike, the source gives them in different places.
Columns and labels:
CBS/CSE = type: cell-based, B. anthracis, S. aureus, P. aeruginosa; conditions: chemical inhibition of CSE (PAG) or CBS (AOAA), 18 hours culture
E. faecium A2373 = assay: MIC of antibiotics with or without PAG/AOAA; type: cell-based; conditions: for MIC: Enterococcus faecium
Experimental: (§1) E. faecalis (ATCC 29212) cultures were prepared at initial inoculums of ˜5×10^5 CFU/ml in Mueller-Hinton II Broth (cation-adjusted). Aliquots of 190 μl were dispensed to each well of a fresh set of plates, and 10 μl of an antibiotic solution (levofloxacin, meropenem, gentamicin, piperacillin, linezolid, cefepime, daptomycin, vancomycin, or chloramphemicol) were transferred to the corresponding wells in each bacterial plate (FIG. 13). For each antibiotic, the starting concentration was 2×MIC (minimum inhibitory concentration) with serial ½ dilutions. Two sets of dilutions were prepared, and to one of them 0.1 mM AOAA was added. The resulting plates were kept at 37° C. and 85% humidity for 20 hours. All nine antibiotics tested were potentiated by AOAA, with respective MICs dropped from 8-fold to 32-fold (FIG. 13).
(§2) Minimum inhibitory concentration (MIC) determination was conducted as described in Example 7, above. To assess antibiotic potentiation by AOAA and PAG, MIC was determined for nine antibiotics (levofloxacin, meropenem, gentamicin, piperacillin, linezolid, cefepime, daptomycin, vancomycin, and chloramphemicol) and four bacterial strains (E. faecium (A2373), E. faecalis ([…]), S. pneumoniae (ATCC 49619), and P. aeruginosa (PAO1)) in the presence of antibiotic alone, 1 mM PAG, 0.1 mM AOAA, or 0.5 mM PAG+0.05 mM AOAA. The smaller the MIC value, the stronger the effect of antibiotic potentiation.

E. faecalis ATCC29212 = assay: MIC of antibiotics with or without PAG/AOAA; type: cell-based; conditions: for MIC: Enterococcus faecalis
Experimental: Bacterial cultures were prepared at initial inoculums of ˜5×10^5 CFU/ml, and aliquots of 190 μl per well were dispensed. Ten μl of the indicated antibiotic solutions were added to each well. The starting concentration for each antibiotic solution was 2×MIC, with serial ½ dilutions. Two sets of dilutions were prepared, and 0.1 mM AOAA was added to one set. The plates were kept at 37° C. and 85% humidity for 20 hours.
as §1, §2

P. aeruginosa PAO1 = assay: MIC of antibiotics with or without PAG/AOAA; type: cell-based; conditions: for MIC: Pseudomonas aeruginosa
Experimental: as §2

S. pneumoniae ATCC49619 = assay: MIC of antibiotics with or without PAG/AOAA; type: cell-based; conditions: for MIC: Streptococcus pneumoniae
Experimental: as §2

[1] = system: E. coli ΔsseA (3MST-deficient) strain; type: cell-based; conditions: Table 1; relative values of growth inhibition (negative numbers), ΔsseA vs wt E. coli
[2] = in the presence of 0.5 mM PAG + 0.05 mM AOAA
[3] = A2373, antibiotic alone, read-out: Minimum inhibitory concentration
[4] = ATCC29212, antibiotic alone, read-out: Minimum inhibitory concentration
[5] = PAO1, antibiotic alone, read-out: Minimum inhibitory concentration
[6] = ATCC49619, antibiotic alone, read-out: Minimum inhibitory concentration

| Compound | Minimum inhibitory concentration (E. faecium A2373; in the presence of 0.1 mM AOAA) | Minimum inhibitory concentration (E. faecium A2373; [2]) | Minimum inhibitory concentration (E. faecium A2373; in the presence of 1 mM PAG) | Minimum inhibitory concentration (E. faecalis ATCC29212; in the presence of 0.1 mM AOAA) | Minimum inhibitory concentration (E. faecalis ATCC29212; [2]) | Minimum inhibitory concentration (E. faecalis ATCC29212; in the presence of 1 mM PAG) | Minimum inhibitory concentration (P. aeruginosa PAO1; in the presence of 0.1 mM AOAA) | Minimum inhibitory concentration (P. aeruginosa PAO1; [2]) | Minimum inhibitory concentration (P. aeruginosa PAO1; in the presence of 1 mM PAG) | Minimum inhibitory concentration (S. pneumoniae ATCC49619; in the presence of 0.1 mM AOAA) | Minimum inhibitory concentration (S. pneumoniae ATCC49619; [2]) | Minimum inhibitory concentration (S. pneumoniae ATCC49619; in the presence of 1 mM PAG) | ΔsseA inhibition of growth [1] | also measured |
| --- | --- | --- | --- | --- | --- | --- | --- | --- | --- | --- | --- | --- | --- | --- |
| C#CCC(N)C(=O)O (racemic) [PAG, D,L-propargylglycine] |  |  |  |  |  |  |  |  |  |  |  |  |  | Effect on H2S production (PbS staining) (CBS/CSE): greatly decreased or eliminated PbS staining |
| CO/N=C(\C(=O)N[C@@H]1C(=O)N2C(C(=O)[O-])=C(C[N+]3(C)CCCC3)CS[C@H]12)c1csc(N)n1 [Cetepine, cefepime] | >64 µg/mL | >64 µg/mL | >64 µg/mL | 2 µg/mL | 8 µg/mL | 32 µg/mL | 2 µg/mL | 1 µg/mL | 2 µg/mL | 0.125 µg/mL | 0.125 µg/mL | 0.125 µg/mL |  | Minimum inhibitory concentration (E. faecium A2373; antibiotic alone): >64 µg/mL; Minimum inhibitory concentration (E. faecalis ATCC29212; antibiotic alone): 32 µg/mL; Minimum inhibitory concentration (P. aeruginosa PAO1; antibiotic alone): 2 µg/mL; Minimum inhibitory concentration (S. pneumoniae ATCC49619; antibiotic alone): 0.125 µg/mL |
| O=C(N[C@H](CO)[C@H](O)c1ccc([N+](=O)[O-])cc1)C(Cl)Cl [Chloramphenicol] | 2 µg/mL | 8 µg/mL | 8 µg/mL | 0.5 µg/mL | 8 µg/mL | 8 µg/mL | 64 µg/mL | 64 µg/mL | 64 µg/mL | 4 µg/mL | 4 µg/mL | 4 µg/mL | −136 | MIC (E. faecium A2373; [3]): 8 µg/mL; MIC (E. faecalis ATCC29212; [4]): 8 µg/mL; MIC (P. aeruginosa PAO1; [5]): 64 µg/mL; MIC (S. pneumoniae ATCC49619; [6]): 8 µg/mL |
| CCCCCCCCCC(=O)N[C@@H](Cc1c[nH]c2ccccc12)C(=O)N[C@H](CC(N)=O)C(=O)N[C@@H](CC(=O)O)C(=O)N[C@@H]1C(=O)NCC(=O)N[C@@H](CCCN)C(=O)N[C@@H](CC(=O)O)C(=O)N[C@H](C)C(=O)N[C@@H](CC(=O)O)C(=O)NCC(=O)N[C@H](CO)C(=O)N[C@@H]([C@H](C)CC(=O)O)C(=O)N[C@@H](CC(=O)c2ccccc2N)C(=O)O[C@@H]1C [Daptomycin, daptomycin] | ≦1 μg/ml | 4 µg/mL | 2 µg/mL | ≦0.06 μg/ml | 1 µg/mL | 2 µg/mL | >64 µg/mL | >64 µg/mL | >64 µg/mL | 0.063 µg/mL | 0.125 µg/mL | 0.125 µg/mL |  | MIC (E. faecium A2373; [3]): 4 µg/mL; MIC (E. faecalis ATCC29212; [4]): 2 µg/mL; MIC (P. aeruginosa PAO1; [5]): > 64 µg/mL; MIC (S. pneumoniae ATCC49619; [6]): 0.125 µg/mL |
| C[C@H]1COc2c(N3CCN(C)CC3)c(F)cc3c(=O)c(C(=O)O)cn1c23 [Levoflaxacin, levofloxacin] | 2 µg/mL | 2 µg/mL | 2 µg/mL | 0.125 µg/mL | 0.5 µg/mL | 1 µg/mL | 0.5 µg/mL | 0.5 µg/mL | 0.5 µg/mL | 0.5 µg/mL | 0.5 µg/mL | 1 µg/mL |  | MIC (E. faecium A2373; [3]): 2 µg/mL; MIC (E. faecalis ATCC29212; [4]): 1 µg/mL; MIC (P. aeruginosa PAO1; [5]): 0.5 µg/mL; MIC (S. pneumoniae ATCC49619; [6]): 2 µg/mL |
| CC(=O)NC[C@H]1CN(c2ccc(N3CCOCC3)c(F)c2)C(=O)O1 [Linezold, linezolid] | 2 µg/mL | 4 µg/mL | 4 µg/mL | 0.25 µg/mL | 2 µg/mL | 4 µg/mL | >64 µg/mL | >64 µg/mL | >64 µg/mL | 0.5 µg/mL | 1 µg/mL | 2 µg/mL |  | MIC (E. faecium A2373; [3]): 4 µg/mL; MIC (E. faecalis ATCC29212; [4]): 4 µg/mL; MIC (P. aeruginosa PAO1; [5]): > 64 µg/mL; MIC (S. pneumoniae ATCC49619; [6]): 2 µg/mL |
| C[C@@H](O)[C@H]1C(=O)N2C(C(=O)O)=C(S[C@@H]3CN[C@H](C(=O)N(C)C)C3)[C@H](C)[C@H]12 [Meropenom, meropenem] | 6 µg/mL | >64 µg/mL | >64 µg/mL | 0.25 µg/mL | 1 µg/mL | 4 µg/mL | 0.5 µg/mL | 0.5 µg/mL | 0.5 µg/mL | 0.063 µg/mL | 0.063 µg/mL | 0.063 µg/mL |  | Minimum inhibitory concentration (E. faecium A2373; antibiotic alone): >64 µg/mL; Minimum inhibitory concentration (E. faecalis ATCC29212; antibiotic alone): 4 µg/mL; Minimum inhibitory concentration (P. aeruginosa PAO1; antibiotic alone): 1 µg/mL; Minimum inhibitory concentration (S. pneumoniae ATCC49619; antibiotic alone): 0.125 µg/mL |
| CCN1CCN(C(=O)N[C@@H](C(=O)N[C@@H]2C(=O)N3[C@@H]2SC(C)(C)[C@@H]3C(=O)O)c2ccccc2)C(=O)C1=O [Piperacilin, piperacillin] | 6 µg/mL | >64 µg/mL | >64 µg/mL | 0.25 µg/mL | 1 µg/mL | 2 µg/mL | 4 µg/mL | 4 µg/mL | 4 µg/mL | 0.25 µg/mL | 0.5 µg/mL | 0.5 µg/mL |  | Minimum inhibitory concentration (E. faecium A2373; antibiotic alone): >64 µg/mL; Minimum inhibitory concentration (E. faecalis ATCC29212; antibiotic alone): 2 µg/mL; Minimum inhibitory concentration (P. aeruginosa PAO1; antibiotic alone): 4 µg/mL; Minimum inhibitory concentration (S. pneumoniae ATCC49619; antibiotic alone): 0.5 µg/mL |
| CN[C@H](CC(C)C)C(=O)N[C@H]1C(=O)N[C@@H](CC(N)=O)C(=O)N[C@H]2C(=O)N[C@H]3C(=O)N[C@H](C(=O)N[C@H](C(=O)O)c4cc(O)cc(O)c4-c4cc3ccc4O)[C@H](O)c3ccc(c(Cl)c3)Oc3cc2cc(c3O[C@@H]2O[C@H](CO)[C@@H](O)[C@H](O)[C@H]2O[C@H]2C[C@](C)(N)[C@H](O)[C@H](C)O2)Oc2ccc(cc2Cl)[C@H]1O [Vancomycin] | 2 µg/mL | >64 µg/mL | >64 µg/mL | 1 µg/mL | 2 µg/mL | 2 µg/mL | >64 µg/mL | >64 µg/mL | >64 µg/mL | 0.125 µg/mL | 0.125 µg/mL | 0.125 µg/mL | −198 | MIC (E. faecium A2373; A2373, read-out: Minimum inhibitory concentration): > 64 µg/mL; MIC (E. faecalis ATCC29212; ATCC29212, read-out: Minimum inhibitory concentration): 2 µg/mL; MIC (P. aeruginosa PAO1; PAO1, read-out: Minimum inhibitory concentration): > 64 µg/mL; MIC (S. pneumoniae ATCC49619; ATCC49619, read-out: Minimum inhibitory concentration): 0.125 µg/mL |
| Colistin |  |  |  |  |  |  |  |  |  |  |  |  | −102 |  |
| Poly-L-lysine |  |  |  |  |  |  |  |  |  |  |  |  | −377 |  |
| Polymyxin B |  |  |  |  |  |  |  |  |  |  |  |  | −231 |  |
| Spiramycin |  |  |  |  |  |  |  |  |  |  |  |  | −235 |  |
| gentamicin | >64 µg/mL | >64 µg/mL | >64 µg/mL | 1 µg/mL | 4 µg/mL | 32 µg/mL | 2 µg/mL | 4 µg/mL | 2 µg/mL | 8 µg/mL | 16 µg/mL | 32 µg/mL |  | Minimum inhibitory concentration (E. faecium A2373; antibiotic alone): >64 µg/mL; Minimum inhibitory concentration (E. faecalis ATCC29212; antibiotic alone): 32 µg/mL; Minimum inhibitory concentration (P. aeruginosa PAO1; antibiotic alone): 2 µg/mL; Minimum inhibitory concentration (S. pneumoniae ATCC49619; antibiotic alone): 32 µg/mL |

— patent US20140066362A1, “METHOD FOR TREATING INFECTIONS BY TARGETING MICROBIAL H2S-PRODUCING ENZYMES” (NEW YORK UNIVERSITY, priority 2011, published 2014)
